Measured values published in ChEMBL document CHEMBL4507302, “Data for DCP probe TP-020” (2021).

Assays:
[1] = target: 1-phosphatidylinositol 3-phosphate 5-kinase (Homo sapiens) (UniProt Q9Y2I7); details: Compound concentration 1000.0 nM
[2] = tested on: Phosphatidylinositol 4,5-bisphosphate 3-kinase catalytic subunit alpha isoform (Homo sapiens), P42336 [H1047L]; details: Compound concentration 1000.0 nM
[3] = target: Ankyrin repeat and protein kinase domain-containing protein 1 (Homo sapiens) (UniProt Q8NFD2); details: Compound concentration 1000.0 nM
[4] = target: SRSF protein kinase 1 (Homo sapiens) (UniProt Q96SB4); details: Compound concentration 1000.0 nM
[5] = target: Kappa-type opioid receptor (Homo sapiens) (UniProt P41145); details: Compound concentration 10.0 uM
[6] = tested on: Mast/stem cell growth factor receptor Kit (Homo sapiens), P10721 [D816V]; details: Compound concentration 1000.0 nM
[7] = target: Myosin light chain kinase, smooth muscle (Homo sapiens) (UniProt Q15746); details: Compound concentration 1000.0 nM
[8] = target: Serine/threonine-protein kinase 3 (Homo sapiens) (UniProt Q13188); details: Compound concentration 1000.0 nM
[9] = target: Cyclin-dependent kinase 17 (Homo sapiens) (UniProt Q00537); details: Compound concentration 1000.0 nM
[10] = target: Ephrin type-B receptor 6 (Homo sapiens) (UniProt O15197); details: Compound concentration 1000.0 nM
[11] = target: Serine/threonine-protein kinase mTOR (Homo sapiens) (UniProt P42345); details: Compound concentration 1000.0 nM
[12] = target: Death-associated protein kinase 3 (Homo sapiens) (UniProt O43293); details: Compound concentration 1000.0 nM
[13] = target: Mitogen-activated protein kinase kinase kinase kinase 1 (Homo sapiens) (UniProt Q92918); details: Compound concentration 1000.0 nM
[14] = tested on: Phosphatidylinositol 4,5-bisphosphate 3-kinase catalytic subunit alpha isoform (Homo sapiens), P42336 [H1047Y]; details: Compound concentration 1000.0 nM
[15] = tested on: Phosphatidylinositol 4,5-bisphosphate 3-kinase catalytic subunit alpha isoform (Homo sapiens), P42336 [M1043I]; details: Compound concentration 1000.0 nM
[16] = target: Serine/threonine-protein kinase tousled-like 2 (Homo sapiens) (UniProt Q86UE8); details: Compound concentration 1000.0 nM
[17] = target: Calcium/calmodulin-dependent protein kinase kinase 1 (Homo sapiens) (UniProt Q8N5S9); details: Compound concentration 1000.0 nM
[18] = target: Tyrosine-protein kinase ITK/TSK (Homo sapiens) (UniProt Q08881); details: Compound concentration 1000.0 nM
[19] = target: Ephrin type-A receptor 3 (Homo sapiens) (UniProt P29320); details: Compound concentration 1000.0 nM
[20] = target: Serine/threonine-protein kinase RIO2 (Homo sapiens) (UniProt Q9BVS4); details: Compound concentration 1000.0 nM
Chain of Serine/threonine-protein kinase RIO2 (Homo sapiens) (Q9BVS4 whole entry, looked up): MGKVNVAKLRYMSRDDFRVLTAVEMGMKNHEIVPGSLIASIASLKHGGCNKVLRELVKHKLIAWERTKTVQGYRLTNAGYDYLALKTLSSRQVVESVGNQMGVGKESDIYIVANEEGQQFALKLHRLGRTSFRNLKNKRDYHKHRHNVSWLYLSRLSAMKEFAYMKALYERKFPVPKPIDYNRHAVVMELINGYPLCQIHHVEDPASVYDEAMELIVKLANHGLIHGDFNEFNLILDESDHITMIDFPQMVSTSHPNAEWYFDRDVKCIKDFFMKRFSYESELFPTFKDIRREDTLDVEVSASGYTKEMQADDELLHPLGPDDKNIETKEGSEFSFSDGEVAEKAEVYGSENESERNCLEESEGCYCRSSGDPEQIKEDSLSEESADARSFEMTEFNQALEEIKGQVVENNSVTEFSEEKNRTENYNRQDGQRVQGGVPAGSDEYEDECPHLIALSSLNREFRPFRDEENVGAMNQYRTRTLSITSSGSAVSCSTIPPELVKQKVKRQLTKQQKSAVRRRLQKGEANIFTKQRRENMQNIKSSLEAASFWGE

[21] = tested on: Epidermal growth factor receptor (Homo sapiens), P00533 [UNDEFINED MUTATION]; details: Compound concentration 1000.0 nM
[22] = target: Serine/threonine-protein kinase 32C (Homo sapiens) (UniProt Q86UX6); details: Compound concentration 1000.0 nM
[23] = target: Serine/threonine-protein kinase ULK2 (Homo sapiens) (UniProt Q8IYT8); details: Compound concentration 1000.0 nM
Chain of Serine/threonine-protein kinase ULK2 (Homo sapiens) (Q8IYT8 whole entry): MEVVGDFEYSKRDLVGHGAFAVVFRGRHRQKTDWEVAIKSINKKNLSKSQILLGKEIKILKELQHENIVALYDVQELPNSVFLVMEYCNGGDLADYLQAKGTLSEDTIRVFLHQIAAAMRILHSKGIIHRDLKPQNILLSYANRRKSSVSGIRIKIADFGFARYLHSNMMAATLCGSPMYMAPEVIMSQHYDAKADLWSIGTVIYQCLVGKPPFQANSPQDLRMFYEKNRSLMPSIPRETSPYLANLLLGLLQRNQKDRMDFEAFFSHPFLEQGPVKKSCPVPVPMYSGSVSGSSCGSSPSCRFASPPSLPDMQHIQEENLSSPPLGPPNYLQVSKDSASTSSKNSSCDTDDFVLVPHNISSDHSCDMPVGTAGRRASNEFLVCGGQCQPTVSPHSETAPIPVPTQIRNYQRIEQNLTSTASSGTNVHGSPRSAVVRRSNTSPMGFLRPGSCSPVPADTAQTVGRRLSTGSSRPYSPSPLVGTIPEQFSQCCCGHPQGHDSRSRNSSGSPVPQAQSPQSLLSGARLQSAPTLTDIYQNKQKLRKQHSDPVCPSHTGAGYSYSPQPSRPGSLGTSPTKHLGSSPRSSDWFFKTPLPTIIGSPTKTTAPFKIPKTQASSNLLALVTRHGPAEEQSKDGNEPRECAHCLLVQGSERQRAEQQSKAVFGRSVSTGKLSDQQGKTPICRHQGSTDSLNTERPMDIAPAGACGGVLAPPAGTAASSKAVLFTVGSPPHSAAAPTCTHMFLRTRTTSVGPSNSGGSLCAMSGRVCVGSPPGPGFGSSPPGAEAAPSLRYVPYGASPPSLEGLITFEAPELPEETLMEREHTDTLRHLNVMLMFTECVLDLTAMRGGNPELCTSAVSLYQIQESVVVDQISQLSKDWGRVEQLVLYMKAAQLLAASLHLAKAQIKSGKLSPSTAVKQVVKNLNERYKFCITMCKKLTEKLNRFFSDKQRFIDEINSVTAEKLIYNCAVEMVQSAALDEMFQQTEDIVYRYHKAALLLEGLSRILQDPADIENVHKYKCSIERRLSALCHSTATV

[24] = target: Tyrosine-protein kinase Fgr (Homo sapiens) (UniProt P09769); details: Compound concentration 1000.0 nM
[25] = target: 5-hydroxytryptamine receptor 5A (Homo sapiens) (UniProt P47898); details: Compound concentration 10.0 uM
Chain of 5-hydroxytryptamine receptor 5A (Homo sapiens) (P47898 whole entry): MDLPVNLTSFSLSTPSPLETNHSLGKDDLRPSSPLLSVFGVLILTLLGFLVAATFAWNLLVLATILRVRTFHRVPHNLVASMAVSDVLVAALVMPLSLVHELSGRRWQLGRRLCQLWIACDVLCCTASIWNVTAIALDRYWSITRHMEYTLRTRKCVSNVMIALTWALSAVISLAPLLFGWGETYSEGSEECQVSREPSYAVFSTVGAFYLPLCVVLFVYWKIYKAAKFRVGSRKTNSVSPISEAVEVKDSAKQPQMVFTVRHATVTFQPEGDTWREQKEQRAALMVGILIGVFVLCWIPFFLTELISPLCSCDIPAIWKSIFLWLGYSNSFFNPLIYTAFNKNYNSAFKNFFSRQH

[26] = target: Sodium-dependent dopamine transporter (Homo sapiens) (UniProt Q01959); details: Compound concentration 10.0 uM
[27] = target: Serine/threonine-protein kinase 10 (Homo sapiens) (UniProt O94804); details: Compound concentration 1000.0 nM
[28] = target: Calcium/calmodulin-dependent protein kinase type II subunit gamma (Homo sapiens) (UniProt Q13555); details: Compound concentration 1000.0 nM
[29] = target: Serine/threonine-protein kinase Chk2 (Homo sapiens) (UniProt O96017); details: Compound concentration 1000.0 nM
[30] = target: Myosin light chain kinase family member 4 (Homo sapiens) (UniProt Q86YV6); details: Compound concentration 1000.0 nM
[31] = target: D(2) dopamine receptor (Homo sapiens) (UniProt P14416); details: Compound concentration 10.0 uM
[32] = target: Phosphatidylinositol 4-phosphate 5-kinase type-1 alpha (Homo sapiens) (UniProt Q99755); details: Compound concentration 1000.0 nM
[33] = target: Casein kinase I isoform delta (Homo sapiens) (UniProt P48730); details: Compound concentration 1000.0 nM
[34] = target: Serine/threonine-protein kinase WNK4 (Homo sapiens) (UniProt Q96J92); details: Compound concentration 1000.0 nM
[35] = target: Tyrosine-protein kinase ZAP-70 (Homo sapiens) (UniProt P43403); details: Compound concentration 1000.0 nM
[36] = target: Myosin-IIIb (Homo sapiens) (UniProt Q8WXR4); details: Compound concentration 1000.0 nM
[37] = target: Mitogen-activated protein kinase kinase kinase 15 (Homo sapiens) (UniProt Q6ZN16); details: Compound concentration 1000.0 nM
[38] = target: Interleukin-1 receptor-associated kinase 3 (Homo sapiens) (UniProt Q9Y616); details: Compound concentration 1000.0 nM
[39] = target: Cyclin-dependent kinase 13 (Homo sapiens) (UniProt Q14004); details: Compound concentration 1000.0 nM
Chain of Cyclin-dependent kinase 13 (Homo sapiens) (Q14004 whole entry, looked up): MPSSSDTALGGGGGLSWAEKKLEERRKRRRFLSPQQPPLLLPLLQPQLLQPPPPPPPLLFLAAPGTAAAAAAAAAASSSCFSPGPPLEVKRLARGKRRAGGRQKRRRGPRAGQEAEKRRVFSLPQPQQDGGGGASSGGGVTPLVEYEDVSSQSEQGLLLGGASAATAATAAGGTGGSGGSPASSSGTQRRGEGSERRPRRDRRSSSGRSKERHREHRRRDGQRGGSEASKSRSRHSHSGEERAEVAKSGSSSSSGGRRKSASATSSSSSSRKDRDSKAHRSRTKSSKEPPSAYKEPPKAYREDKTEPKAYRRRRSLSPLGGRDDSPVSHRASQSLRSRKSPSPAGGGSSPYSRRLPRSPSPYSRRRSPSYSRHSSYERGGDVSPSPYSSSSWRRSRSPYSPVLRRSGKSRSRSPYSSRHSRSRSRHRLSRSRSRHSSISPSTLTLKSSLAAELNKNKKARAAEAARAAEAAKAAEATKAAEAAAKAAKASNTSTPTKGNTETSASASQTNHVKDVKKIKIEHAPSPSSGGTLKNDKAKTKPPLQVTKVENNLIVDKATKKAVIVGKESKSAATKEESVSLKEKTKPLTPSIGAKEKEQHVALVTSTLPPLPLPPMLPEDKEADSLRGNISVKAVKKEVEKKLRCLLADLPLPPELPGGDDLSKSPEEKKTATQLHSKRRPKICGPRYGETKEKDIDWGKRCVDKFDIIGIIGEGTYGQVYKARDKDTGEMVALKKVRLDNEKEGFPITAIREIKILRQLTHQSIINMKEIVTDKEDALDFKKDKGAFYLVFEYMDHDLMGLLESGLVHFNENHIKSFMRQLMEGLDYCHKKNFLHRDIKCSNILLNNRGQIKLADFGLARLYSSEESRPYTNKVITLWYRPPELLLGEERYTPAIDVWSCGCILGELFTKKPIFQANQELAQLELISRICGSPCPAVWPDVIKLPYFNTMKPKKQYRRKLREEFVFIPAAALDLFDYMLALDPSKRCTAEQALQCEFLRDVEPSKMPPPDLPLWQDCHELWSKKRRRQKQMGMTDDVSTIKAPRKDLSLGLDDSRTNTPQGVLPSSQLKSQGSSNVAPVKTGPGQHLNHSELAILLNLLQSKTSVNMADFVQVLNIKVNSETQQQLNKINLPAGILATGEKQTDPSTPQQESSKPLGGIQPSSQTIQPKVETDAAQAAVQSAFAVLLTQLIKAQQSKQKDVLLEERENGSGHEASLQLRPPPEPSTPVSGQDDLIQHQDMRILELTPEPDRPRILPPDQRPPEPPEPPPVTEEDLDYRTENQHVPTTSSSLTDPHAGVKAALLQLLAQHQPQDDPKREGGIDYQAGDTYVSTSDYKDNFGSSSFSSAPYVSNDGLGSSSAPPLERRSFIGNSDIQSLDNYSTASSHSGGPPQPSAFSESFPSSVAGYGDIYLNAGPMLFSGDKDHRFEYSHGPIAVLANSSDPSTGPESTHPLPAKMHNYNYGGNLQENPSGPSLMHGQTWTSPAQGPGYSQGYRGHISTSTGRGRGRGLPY

[40] = target: Serine/threonine-protein kinase 33 (Homo sapiens) (UniProt Q9BYT3); details: Compound concentration 1000.0 nM
[41] = target: cAMP-dependent protein kinase catalytic subunit alpha (Homo sapiens) (UniProt P17612); details: Compound concentration 1000.0 nM
[42] = target: Receptor tyrosine-protein kinase erbB-4 (Homo sapiens) (UniProt Q15303); details: Compound concentration 1000.0 nM
[43] = target: Dual specificity mitogen-activated protein kinase kinase 2 (Homo sapiens) (UniProt P36507); details: Compound concentration 1000.0 nM
Chain of Dual specificity mitogen-activated protein kinase kinase 2 (Homo sapiens) (P36507 whole entry): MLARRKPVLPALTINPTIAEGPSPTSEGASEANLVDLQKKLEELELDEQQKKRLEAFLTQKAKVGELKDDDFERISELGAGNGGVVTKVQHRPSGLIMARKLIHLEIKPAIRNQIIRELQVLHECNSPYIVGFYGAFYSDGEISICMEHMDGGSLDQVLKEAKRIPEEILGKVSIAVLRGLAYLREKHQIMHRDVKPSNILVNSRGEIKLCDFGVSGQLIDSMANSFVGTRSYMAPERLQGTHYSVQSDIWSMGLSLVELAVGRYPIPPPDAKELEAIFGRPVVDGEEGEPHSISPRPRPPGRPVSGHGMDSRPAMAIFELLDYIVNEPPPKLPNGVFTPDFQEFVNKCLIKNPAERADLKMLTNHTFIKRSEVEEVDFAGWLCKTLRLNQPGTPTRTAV

[44] = target: Tyrosine-protein kinase ABL2 (Homo sapiens) (UniProt P42684); details: Compound concentration 1000.0 nM
[45] = target: Maternal embryonic leucine zipper kinase (Homo sapiens) (UniProt Q14680); details: Compound concentration 1000.0 nM

Chain of Phosphatidylinositol 4,5-bisphosphate 3-kinase catalytic subunit alpha isoform (Homo sapiens), P42336 [H1047L] (P42336 whole entry H1047L, the tested form may be a part, canonical isoform): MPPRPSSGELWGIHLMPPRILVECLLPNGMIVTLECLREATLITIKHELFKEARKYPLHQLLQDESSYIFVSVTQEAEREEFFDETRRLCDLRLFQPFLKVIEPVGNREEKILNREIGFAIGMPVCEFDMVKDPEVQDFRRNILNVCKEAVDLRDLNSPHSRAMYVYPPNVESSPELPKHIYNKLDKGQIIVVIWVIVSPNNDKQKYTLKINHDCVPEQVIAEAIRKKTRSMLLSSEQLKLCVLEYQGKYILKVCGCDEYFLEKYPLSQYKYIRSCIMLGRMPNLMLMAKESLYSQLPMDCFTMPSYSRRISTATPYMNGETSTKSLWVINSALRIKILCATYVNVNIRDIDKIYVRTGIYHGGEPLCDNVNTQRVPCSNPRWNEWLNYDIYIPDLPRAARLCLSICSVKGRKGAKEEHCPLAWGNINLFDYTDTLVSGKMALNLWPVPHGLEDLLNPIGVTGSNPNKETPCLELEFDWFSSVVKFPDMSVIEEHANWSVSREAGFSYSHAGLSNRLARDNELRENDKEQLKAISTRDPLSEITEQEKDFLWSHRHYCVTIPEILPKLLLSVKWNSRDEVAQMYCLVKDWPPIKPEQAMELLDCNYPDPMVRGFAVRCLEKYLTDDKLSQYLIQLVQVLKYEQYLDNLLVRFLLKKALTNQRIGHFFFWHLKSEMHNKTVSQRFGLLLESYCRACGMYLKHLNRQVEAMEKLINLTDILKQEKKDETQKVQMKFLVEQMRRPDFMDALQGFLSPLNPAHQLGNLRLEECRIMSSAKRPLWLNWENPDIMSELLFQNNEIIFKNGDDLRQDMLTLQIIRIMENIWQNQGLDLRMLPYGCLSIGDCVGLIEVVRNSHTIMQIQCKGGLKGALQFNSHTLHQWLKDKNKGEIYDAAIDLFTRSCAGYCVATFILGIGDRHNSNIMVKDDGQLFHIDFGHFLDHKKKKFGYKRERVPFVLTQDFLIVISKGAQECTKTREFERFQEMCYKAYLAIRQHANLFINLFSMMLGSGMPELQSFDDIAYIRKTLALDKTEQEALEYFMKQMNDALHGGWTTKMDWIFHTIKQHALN

Nc1cnc(N2CCc3cc(S(=O)(=O)Nc4c(F)cc(Cl)cc4F)cc(N4CCCC4=O)c32)nc1
inactive: residual activity [1] 100% | residual activity [2] 60% | residual activity [3] 100% | residual activity [4] 81% | inhibition [5] 14.9% | residual activity [6] 100% | residual activity [7] 91% | residual activity [8] 96% | residual activity [9] 100% | residual activity [10] 100% | residual activity [11] 100% | residual activity [12] 83% | residual activity [13] 83% | residual activity [14] 100% | residual activity [15] 100% | residual activity [16] 79% | residual activity [17] 100% | residual activity [18] 100% | residual activity [19] 78% | residual activity [20] 89% | residual activity [21] 100% | residual activity [22] 100% | residual activity [23] 100% | residual activity [24] 100% | inhibition [25] -4.87% | inhibition [26] 20.2% | residual activity [27] 100% | residual activity [28] 100% | residual activity [29] 92% | residual activity [30] 100% | inhibition [31] -0.42% | residual activity [32] 100% | residual activity [33] 98% | residual activity [34] 100% | residual activity [35] 85% | residual activity [36] 100% | residual activity [37] 100% | residual activity [38] 89% | residual activity [39] 100% | residual activity [40] 80% | residual activity [41] 100% | residual activity [42] 100% | residual activity [43] 92% | residual activity [44] 95% | residual activity [45] 90%

Cn1nc(C(F)(F)F)cc1-c1cnc(N2CCc3cc(S(=O)(=O)Nc4c(F)cc(Cl)cc4F)cc(N4CCCC4=O)c32)nc1 [TP-020]
inactive: residual activity [1] 88% | residual activity [2] 94% | residual activity [3] 96% | residual activity [4] 77% | inhibition [5] 14.6% | residual activity [6] 100% | residual activity [7] 100% | residual activity [8] 90% | residual activity [9] 100% | residual activity [10] 82% | residual activity [11] 78% | residual activity [12] 97% | residual activity [13] 100% | residual activity [14] 76% | residual activity [15] 89% | residual activity [16] 94% | residual activity [17] 98% | residual activity [18] 97% | residual activity [19] 94% | residual activity [20] 89% | residual activity [21] 100% | residual activity [22] 100% | residual activity [23] 74% | residual activity [24] 90% | inhibition [25] 7.89% | inhibition [26] 14.5% | residual activity [27] 94% | residual activity [28] 95% | residual activity [29] 100% | residual activity [30] 99% | inhibition [31] -0.24% | residual activity [32] 100% | residual activity [33] 94% | residual activity [34] 83% | residual activity [35] 93% | residual activity [36] 100% | residual activity [37] 81% | residual activity [38] 100% | residual activity [39] 79% | residual activity [40] 100% | residual activity [41] 100% | residual activity [42] 94% | residual activity [43] 84% | residual activity [44] 100% | residual activity [45] 100%
